Measurements reported in publication PMC9117288, “Origins of glycan selectivity in streptococcal Siglec-like adhesins suggest mechanisms of receptor adaptation” (Nature Communications, 2022).
Converted amounts (≈) assume the structure as drawn. Where two headings read alike, the source gives them in different places.

How the values were obtained:
SLBRSK678 = assay: ELISA, immobilized GST-SLBR; set-up: species or system Streptococcus sanguinis; details: labelled compound (biotinylated glycan); 500 nM immobilized GST-SLBR
SLBRUB10712 = assay: ELISA, immobilized GST-SLBR; set-up: species or system Streptococcus gordonii; details: labelled compound (biotinylated glycan); 500 nM immobilized GST-SLBR
SLBRHsa [1] = molecular target: T1, SLBRHsa (Streptococcus gordonii, UniProt A8AWU7); format: binding; set-up: gene hsa; details: labelled compound (biotinylated glycan); 500 nM immobilized GST-SLBR
T1 sequence (A8AWU7 220-453): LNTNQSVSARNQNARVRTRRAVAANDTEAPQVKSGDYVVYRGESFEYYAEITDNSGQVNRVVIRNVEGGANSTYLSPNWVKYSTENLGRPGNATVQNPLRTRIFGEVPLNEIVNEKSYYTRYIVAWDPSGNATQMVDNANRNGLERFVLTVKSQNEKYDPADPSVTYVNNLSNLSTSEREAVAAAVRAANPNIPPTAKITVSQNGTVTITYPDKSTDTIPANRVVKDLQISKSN

SLBRGspB [2] = molecular target: T2, SLBRGspB (Streptococcus gordonii, UniProt Q939N5); set-up: ELISA, binding of biotinylated glycans to immobilized GST-SLBR (500 nM), absorbance at 450 nm; details: biotinylated glycan, binder
T2 construct: gene gspB
T2 sequence (Q939N5 245-604): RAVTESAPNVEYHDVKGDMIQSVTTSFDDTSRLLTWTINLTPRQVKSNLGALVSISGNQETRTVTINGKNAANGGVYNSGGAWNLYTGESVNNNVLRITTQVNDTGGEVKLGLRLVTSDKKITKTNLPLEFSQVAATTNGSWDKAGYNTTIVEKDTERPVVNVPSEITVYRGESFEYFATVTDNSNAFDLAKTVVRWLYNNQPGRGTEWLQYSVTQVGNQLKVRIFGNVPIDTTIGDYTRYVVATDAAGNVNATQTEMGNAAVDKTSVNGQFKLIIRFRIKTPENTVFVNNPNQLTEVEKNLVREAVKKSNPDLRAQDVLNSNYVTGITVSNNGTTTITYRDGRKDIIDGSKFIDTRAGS

SLBRHsa [3] = molecular target: T1, SLBRHsa; set-up: gene hsa; ELISA: GST fusion (pGEX-3X); crystals: His6-MBP tag cleaved with thrombin; E. coli; details: binder
SLBRGspB [4] = molecular target: T2, SLBRGspB; assay: ELISA, immobilized GST-SLBR; format: binding; details: labelled compound (biotinylated glycan)

Compound | EC50 (SLBRSK678) | EC50 (SLBRUB10712) | EC50 (SLBRHsa [1]) | also measured
CC(=O)N[C@H]1[C@H]([C@H](O)[C@H](O)CO)O[C@@](O[C@H]2[C@@H](O)[C@@H](CO)O[C@@H](O[C@H]3[C@H](O)[C@@H](NC(C)=O)C(O)O[C@@H]3CO)[C@@H]2O)(C(=O)O)C[C@@H]1O (stereo partly shown) [3’-sialyl-N-acetyllactosamine] | 0.90 ± 0.51 µg/mL (≈ 1.33 µM) | 0.13 ± 0.19 µg/mL (≈ 0.193 µM) | 2.39 µM | EC50 (SLBRGspB [2]; read-out: 3'sLn): > 7.41 µM
CC(=O)N[C@H]1[C@H]([C@H](O)[C@H](O)CO)O[C@@](O[C@H]2[C@@H](O)[C@@H](CO)O[C@@H](O[C@H]3[C@H](O[C@@H]4O[C@@H](C)[C@@H](O)[C@@H](O)[C@@H]4O)[C@@H](NC(C)=O)C(O)O[C@@H]3COS(=O)(=O)O)[C@@H]2O)(C(=O)O)C[C@@H]1O (stereo partly shown) [6-O-sulfo-sialyl Lewis X] | 0.63 ± 0.36 µg/mL (≈ 0.699 µM) | 0.14 ± 0.10 µg/mL (≈ 0.155 µM) | – | EC50 (SLBRHsa [3]; read-out: 6S-sLe^X): > 5.55 µM
CC(=O)N[C@H]1[C@H]([C@H](O)[C@H](O)CO)O[C@@](O[C@H]2[C@@H](O)[C@@H](CO)O[C@@H](O[C@@H]([C@H](O[C@@H]3O[C@@H](C)[C@@H](O)[C@@H](O)[C@@H]3O)[C@H](C=O)NC(C)=O)[C@H](O)CO)[C@@H]2O)(C(=O)O)C[C@@H]1O [sLe^X, sialyl Lewis X] | – | – | – | EC50 (SLBRHsa [3]; read-out: sLe^X): > 6.09 µM
CC(=O)N[C@H]1[C@H]([C@H](O)[C@H](O)CO)O[C@@](O[C@H]2[C@@H](O)[C@@H](CO)O[C@@H](O[C@H]3[C@H](O)[C@@H](CO)OC(O)[C@@H]3NC(C)=O)[C@@H]2O)(C(=O)O)C[C@@H]1O (stereo partly shown) [sialyl Lewis^C] | – | – | 0.993 µM | EC50 (SLBRGspB [2]; read-out: sLe^C): > 7.41 µM
CC(=O)N[C@H]1[C@H]([C@H](O)[C@H](O)CO)O[C@@](O[C@H]2[C@@H](O)[C@@H](CO)O[C@@H](O[C@H]3[C@@H](O)[C@@H](CO)OC(O)[C@@H]3NC(C)=O)[C@@H]2O)(C(=O)O)C[C@@H]1O (stereo partly shown) [sialyl-T antigen] | – | – | 0.178 µM | ELISA, immobilized GST-SLBR (SLBRGspB [4]): recapitulated here by ELISA showing concentration-dependent binding; EC50 (SLBRGspB [2]; read-out: sTa): 0.119 µM
